Experimental findings from patent US10239889B1, “Pentacyclic compound” (Eisai R&D Management Co., Ltd., priority 2017, dated 2019) are described below.

The subject of the experiment is rat primary septal neuron culture. The experiment can be described thus: Measurement of acetylcholine (ACh) release in the rat primary septal neuron culture system in the presence of NGF. Particulars: rat primary septal neurons, with NGF, one day after compound addition, ACh by HPLC. Format: cell-based. An excerpt:
Measurement of acetylcholine (ACh) release in the rat primary septal neuron culture system in the presence of NGF
(1) Rat Primary Septal Neuron Culture
The septal area was isolated from Sprague-Dawley (SD) rats (Charles River Laboratories Japan, Inc.) at a fetal age of 18 days, and cultured.
Specifically, fetuses were aseptically removed from pregnant rats under isoflurane anesthesia. The brain was extracted from each fetus, and immersed in ice-cooled L-15 medium (11415-064, Thermo Fisher Scientific). The septal area was dissected from the extracted brain under a stereoscopic microscope. The dissected septal area was subjected to enzyme treatment in an enzyme solution containing 0.25% trypsin (15050-065, Thermo Fisher Scientific) and 0.01% DNase (D5025-150KU, Sigma) at 37° C. for 30 minutes, thereby dispersing the cells. In this case, the enzyme reaction was terminated by adding inactivated horse serum (26050-088, Thermo Fisher Scientific). The enzyme-treated solution was centrifuged at 1000 rpm for 3 minutes, and the supernatant was removed. A medium in an amount of 10 mL was added to the obtained cell mass. The medium used was Dulbecco's Modified Eagle's Medium (044-29765, WAKO) supplemented with N2 supplement (17502-048, Thermo Fisher Scientific), 1 mM sodium pyruvate (11360-070, Thermo Fisher Scientific), and Penicillin-Streptomycin (15140-1221, Thermo Fisher Scientific). The cells of the cell mass to which the medium was added were redispersed by gentle pipetting, and then centrifuged again at 1000 rpm for 3 minutes, and the supernatant was removed. The medium in an amount of 10 mL was added to the obtained cell mass, and the cell dispersion was filtered through a 40-μm nylon mesh (Cell Strainer) to remove the cell mass, thereby obtaining a neuronal cell suspension. The neuronal cell suspension was diluted with the medium, and 10% inactivated bovine serum (26140-079, Thermo Fisher Scientific) and 10% inactivated horse serum were added. Thereafter, 100 μL/well of the suspension was seeded in a 96-well plate (354461, CORNING) pre-coated with poly-D-lysine so that the initial culture density was 1.4×10^5 cells/cm^2. After the seeded cells were cultured under 5% CO2-95% air in a 37° C. incubator for 2 days, the entire medium was replaced with 120 μL of fresh medium, and the cells were subsequently cultured for 5 days.
On the 7th day of culture, compound was added in the following manner. A solution of the test compound in DMSO was diluted with the medium so that the concentration was 10 times higher than the final concentration. NGF (450-01, PEPRO TECH, INC.) was prepared at 0.3 ng/mL. These two solutions were added each in an amount of 15 μL/well, and the mixture was mixed well. The final DMSO concentration was 0.1% or less. Moreover, only DMSO and NGF were added to the control group.
(3) ACh Release Measurement
One day after compound addition, an amount of ACh release was measured by HPLC in the following manner. A warmed buffer was added at 100 μL/well to the well after the medium was eliminated, and the buffer was immediately removed. Thereafter, a buffer to which 10 μm choline, 10 μm physostigmine, and 6 mM KCl were added was added at 120 μL/well. The buffer was prepared by adding 125 mM NaCl, 25 mM 4-(2-hydroxyethyl)-1-piperazineethanesulfonic acid, 1.2 mM KH2PO4, 1.2 mM MgSO4, 2.2 mM CaCl2 (2H2O), and 10 mM glucose to sterilized water, and the final pH of the solution was set to 7.4. After the 96-well plate to which the buffer was added was incubated under 5% CO2-95% air in a 37° C. incubator for 40 minutes, 80 μL of buffer was collected. An internal standard solution IPHC (5×10^−7 M) was added in an amount of 6 μL to the collected buffer, and the buffer was transferred to a tube for HPLC measurement and subjected to HPLC measurement. […]

Turning to `CN1CCc2c(sc3nc4n(c(=O)c23)-c2sccc2C(=O)N(C)C4)C1` [Example 3, 5,10-dimethyl-5,6,9,10,11,12-hexahydropyrido[4″,3″:4′,5′]thieno[2′,3′:4,5]pyrimido[1,2-a]thieno[3,2-f][1,4]diazepine-4,13-dione], the “Concentration (μM) showing a 20% or more increase from the amount of ACh in the control group” value turned out to be 0.1 µM.
Next, `CN1CCc2c(sc3nc4n(c(=O)c23)-c2ccc(F)cc2C(=O)N(C)C4)C1` [Example 1]: 0.1 µM.
